Results: patent US20100093060A1, “GROWTH OF MICROORGANISMS IN CELLULOSIC MEDIA” (priority 2008, published 2010)
Residues, ends and D or L forms follow the SMILES beside them.

Key:
[1] = Determination of Critical Micelle Concentration (surface tension, Wilhelmy plate); type: physicochemical; settings: triple distilled water, pH 10, 25±1° C.
Method: Determination of Critical Micelle Concentration. […] Surface tension was measured at 25±1° C. using the Wilhelmy plate technique with a sandblasted platinum plate as the sensor coupled to a Cahn microbalance. The entire assembly was kept in a draft-free plastic cage at a temperature of 25±1° C.

[2] = system: Gram-negative and Gram-positive bacteria; settings: minimal antibacterial effects; typical range; cited from earlier work

Critical Micelle Concentration (CMC) [1]	SMILES	minimum inhibitory concentration (MIC) [2]
1.3 mM	CCCCCCCCCCCC(O)CC(=O)N[C@@H](CCC(=O)O)C(=O)O (stereo partly drawn) [FA-Glu, β-hydroxy myristoyl glutamate]	–
14.1 mM	CCCCCCCCCCCCCC(=O)N[C@@H](CCC(=O)O)C(=O)O [myristoyl glutamate]	–
–	CC(C)CCCCCCCCC[C@@H]1CC(=O)N[C@@H](CCC(=O)O)C(=O)N[C@@H](CC(C)C)C(=O)N[C@H](CC(C)C)C(=O)N[C@@H](C(C)C)C(=O)N[C@@H](CC(=O)O)C(=O)N[C@H](CC(C)C)C(=O)N[C@@H](CC(C)C)C(=O)O1 [surfactin] (HELM PEPTIDE1{E.L.[dL].V.D.[dL].L}|CHEM1{[CC(C)CCCCCCCCC[C@H](CC(=O)[*:1])O[*:2]]}$PEPTIDE1,CHEM1,1:R1-1:R1|PEPTIDE1,CHEM1,7:R2-1:R2$$$V2.0)	12 to 50 µg/mL
